{"source": "patent US12653776B2", "about": "“Methods of treatment of cancer by continuous infusion of coenzyme Q10” (priority 2013, dated 2026)", "key": {"[1]": {"test": "First-in-human Phase 1 study (CTL0510), 4-hour IV infusion 3 times weekly: safety", "procedure": "The first-in-human Phase 1 study with coenzyme Q10 nanosuspension (40 mg/ml) was conducted in 50 patients with advanced solid tumors. The objectives were to assess the safety, maximum tolerated dose, PK and PD of coenzyme Q10, specifically a 4% coenzyme Q10 nanosuspension formulation (as described in WO 2011/112900, the entire contents of which are expressly incorporated herein by reference), administered as a 4-hour IV infusion 3 times weekly in 28-day cycles. Nine dose levels were explored ranting from 5.62 to 139 mg/kg. Plasma concentration profiles and PK parameters were determined from blood samples collected pre-dose and at intervals to 48 hours post-dose."}, "[2]": {"system": "lung chloromas (MIA C51 clone)", "test": "Lung chloroma rat model, survival", "format": "in vivo, rats", "settings": "continuous infusion vs injection 3 times a day, 50 mg/kg per day", "description": "The effect of dosing schedule of coenzyme Q10 was also investigated in rats bearing liver or lung chloromas. Rats were transplanted with liver or lung clones of malignant chloromas derived from a stable myelogenous leukemia (chloroleukemia) cell line, MIA C51 (see. e.g., Jimenez and Yunis (1987) Science 238: 1278-1280). The clones have been selected to home to and form tumors in the liver or lungs, respectively. Rats were randomized to receive either no treatment, injection 3 times a day with 40 mg/mL (4%) coenzyme Q10, or continuous infusion of 40 mg/mL (4%) coenzyme Q10 via an implanted pump, to deliver for each regimen a total dose of 50 mg/kg body weight per day. […] For example, at Day 189 in the liver chloroma model, 45 of 50 rats were alive in the continuous infusion treatment group compared with 26 of 50 rats alive in the injection treatment group. All control animals were dead at Day 30."}, "[3]": {"system": "H522 human lung cancer cells", "test": "H522 human lung cancer rat model, survival", "format": "in vivo, rats", "procedure": "The effect of coenzyme Q10 dosing regimens was further investigated in rats implanted with H522 human lung cancer cells. Rats were randomized to receive either no treatment (control), continuous infusion with coenzyme Q10, chemotherapy, or a combination of coenzyme Q10 and chemotherapy. The dose of coenzyme Q10 was 50 mg/kg per day over 24 hours and the concentration was 4%. The chemotherapy was repeated on a three week cycle as follows: week 1: I.V. Cyclophosphamide, 35 mg/kg, 1×/wk and I.V. Doxorubicin 2.5 mg/kg, 3×/wk; Weeks 2-3: no treatment."}, "[4]": {"system": "acute erythro-leukemia (K562) cells", "test": "Acute erythroleukemia (K562) mouse model, survival", "format": "in vivo, mice", "procedure": "Human acute erythro-leukemia (K562) and acute myeloid leukemia (KG1) cells (1×10^6) were injected intraperitoneally in immune-compromised mice. Engraftment was confirmed by complete blood counts, presence of anemia, and clinical assessment of animal behavior.\nThe mice (total n=120 for each model respectively) were randomized into four (n=30/group) treatment groups. Each treatment regimen was administered in a four week cycle with three weeks of treatment, one week off: • 1. Untreated (control) • 2. Coenzyme Q10 (4%, administered at 75 mg/kg, once/day by continuous infusion) • 3. Chemotherapy (cytarabine/AraC 25 mg/kg, 5×/week; and adriamycin/daunorubicin 5 mg/kg; 1×/wk) • 4. Coenzyme Q10 (4%, administered at 75 mg/kg, once/day by continuous infusion)+chemotherapy (cytarabine/AraC 25 mg/kg, 5×/week; and adriamycin/daunorubicin 5 mg/kg; 1×/wk)\nAll dosings were intravenous and followed a protocol of 3 week treatment followed by 1 week rest. Leukemia was monitored by pallor and blood smears, and hone marrow smears were performed post-mortem for analysis using Wright's stain. Survival results from the study of mice with acute erythroleukemia are show in FIG. 5. Day 1 is the first day of treatment with coenzyme Q10 and/or chemotherapy."}}}
{"substance": "coenzyme Q10", "values": [{"measurement": "serious adverse events (bleeding) resulting in the patient's death due to hemothorax", "setting": "[1]; 104.3 mg/kg dose level", "value": "One"}, {"measurement": "AST increased, laboratory AE", "setting": "[1]; in vivo", "value": 8, "unit": "%"}, {"measurement": "CTCAE grade of the majority of adverse events", "setting": "[1]; in vivo", "value": "grade 1 or 2"}, {"measurement": "PTT prolonged, laboratory AE", "setting": "[1]; in vivo", "value": 80, "unit": "%"}, {"measurement": "SAEs reported as possibly related to coenzyme Q10", "setting": "[1]; in vivo", "value": "Two"}, {"measurement": "alkaline phosphatase increased, laboratory AE", "setting": "[1]; in vivo", "value": 2, "unit": "%"}, {"measurement": "arthritis, AE related to coenzyme Q10", "setting": "[1]; in vivo", "value": 4, "unit": "%"}, {"measurement": "chills, AE related to coenzyme Q10", "setting": "[1]; in vivo", "value": 6, "unit": "%"}, {"measurement": "dose limiting toxicities (DLTs)", "setting": "[1]; in vivo", "value": "no dose limiting toxicities (DLTs) were identified"}, {"measurement": "fatigue, AE related to coenzyme Q10", "setting": "[1]; in vivo", "value": 24, "unit": "%"}, {"measurement": "fever, AE related to coenzyme Q10", "setting": "[1]; in vivo", "value": 8, "unit": "%"}, {"measurement": "headache, AE related to coenzyme Q10", "setting": "[1]; in vivo", "value": 10, "unit": "%"}, {"measurement": "increased INR considered related to coenzyme Q10", "setting": "[1]; in vivo", "value": 68, "unit": "%"}, {"measurement": "nausea, AE related to coenzyme Q10", "setting": "[1]; in vivo", "value": 8, "unit": "%"}, {"measurement": "patients who died due to disease progression or intercurrent illness during the study", "setting": "[1]; in vivo", "value": "Twenty"}, {"measurement": "patients who discontinued treatment due to AEs reported as unrelated to treatment", "setting": "[1]; in vivo", "value": "Four"}, {"measurement": "patients who experienced abnormal INR values", "setting": "[1]; in vivo", "value": 38, "unit": "patients"}, {"measurement": "patients with clinically significant increased INR", "setting": "[1]; in vivo", "value": 14, "unit": "patients"}, {"measurement": "platelet count decreased, laboratory AE", "setting": "[1]; in vivo", "value": 14, "unit": "%"}, {"measurement": "vital signs or physical examination findings", "setting": "[1]; in vivo", "value": "No clinically significant changes"}, {"measurement": "effectiveness of continuous infusion regimen", "setting": "[2]", "value": "much more effective than the injection regimen"}, {"measurement": "animal survival", "setting": "[3]; continuous infusion 50 mg/kg per day combined with chemotherapy (cyclophosphamide + doxorubicin)", "value": "more effective than either treatment alone"}, {"measurement": "animal survival", "setting": "[3]; continuous infusion alone, 50 mg/kg per day over 24 hours, 4%, vs cyclophosphamide + doxorubicin", "value": "more effective than chemotherapy alone"}, {"measurement": "survival", "setting": "[4]; coenzyme Q10 75 mg/kg/day continuous infusion + chemotherapy (cytarabine + daunorubicin) vs other groups incl. chemotherapy alone, p<0.00001", "value": "significant increase in survival"}, {"measurement": "survival", "setting": "[4]; coenzyme Q10 alone (4%, 75 mg/kg once/day by continuous infusion) vs chemotherapy alone", "value": "relatively similar survival compared to chemotherapy alone"}]}
